Molecules are shown by their SMILES. Bounds are passed on as bounds.

One series concerns MDCK-MDR1 cells. The experiment in a line: in vitro. The series is classed as in vitro ADME, canine. As to conditions: 3 μM test compound. The method, then:
(§1) MDCK-MDR1 cells (Madin-Darby canine kidney cells transfected with the human MDR1 gene) (Dr. Piet Borst, NKI-AVL, Amsterdam, The Netherlands) were seeded at 300,000 cells per well onto microporous, polycarbonate membranes in 12 well Costar Transwell® plates (Corning, Corning, N.Y.). The medium was removed and replaced with fresh cell culture medium approximately 24 hours after plating. Cells attained confluency and were ready for use in the transport assay after 72 hours of incubation.
(§2) A stock solution of each compound was prepared in DMSO at a concentration of 10 mg/mL. Stock solutions were further diluted in DMSO to a concentration of 1 mM for use in the assay. The final assay concentration of test compound in each incubation mixture was 3 μM and the final concentration of DMSO was 0.3%.
(§3) Cell cultures were pre-incubated with Transport Medium (TM), consisting of Hanks Balanced Salt Solution (HBSS), 25 mM glucose, and 25 mM HEPES, with and without the known P-gp inhibitor GF120918 (2 μM final assay concentration), for 30-60 minutes prior to the addition of test and control compounds. Following the pre-incubation period, transepithelial electrical resistance (TEER) measurements were taken on each insert to insure the integrity of the monolayer. The range for TEER values was 45-85Ω·cm^2. Transport medium was removed. Fresh transport media (1.5 mL) with or without GF120918 was added to the basolateral chambers. Solutions of the test compound were diluted into TM and added to the appropriate wells in triplicate (400 μL/well) at a final concentration of 3 μM with and without GF120918. The final concentration of DMSO was 0.3%. Control compounds were tested in triplicate at a final concentration of 3 μM. Cell monolayers were incubated with shaking (160 rpm) at 37° C. with 5% CO2 in a humidified incubator for one hour. Following the incubation, all plates were removed from the incubator. Inserts were removed from the plates and TEER measurements were again taken on each insert prior to removing samples for analysis to ensure no degradation of the tight junctions during the assay. An aliquot was taken from each receiver and diluted 1:3 with organic solvent (methanol) to assess transport of each compound across the monolayer. An aliquot was taken from each donor and diluted 1:2 with organic solvent (methanol) and then again 1:50 with matrix (50% methanol/50% TM) to assess mass balance within the study. All samples were assayed for test compound concentrations by LC-MS/MS using electrospray ionization.
With `O=C(Nc1ccc2c(c1)B(O)OCC2)c1ccccc1Cl` [M5, 2-Chloro-N-(1-hydroxy-3,4-dihydro-1H-benzo[c][1,2]oxaborinin-7-yl)-benzamide], the “MDCK-MCR1 AQ” value is 0.1.
For `CCc1ccc(C(=O)Nc2ccc3c(c2)B(O)OCC3)cc1` [M12, 4-Ethyl-N-(1-hydroxy-3,4-dihydro-1H-benzo[c][1,2]oxaborinin-7-yl)-benzamide], the “MDCK-MCR1 AQ” value is on record as −0.04.
Turning to `O=C(Nc1ccc2c(c1)B(O)OCC2)c1ccc(Cl)cc1Cl` [M27, 2,4-Dichloro-N-(1-hydroxy-3,4-dihydro-1H-benzo[c][1,2]oxaborinin-7-yl)-benzamide], the “MDCK-MCR1 AQ” value is −0.03.
With `O=C(Nc1ccc2c(c1)B(O)OCC2)c1ccc(Cl)cc1F` [M29, 4-Chloro-2-fluoro-N-(1-hydroxy-3,4-dihydro-1H-benzo[c][1,2]oxaborinin-7-yl)-benzamide], the “MDCK-MCR1 AQ” value is −0.04.
Same read-out and setting: to `O=S(=O)(Nc1ccc2c(c1)B(O)OCC2)c1ccc(Cl)cc1` [M43, 4-Chloro-N-(1-hydroxy-3,4-dihydro-1H-benzo[c][1,2]oxaborinin-7-yl)-benzenesulfonamide] belongs 0.05; to `Cc1ccc(S(=O)(=O)Nc2ccc3c(c2)B(O)OCC3)cc1` [M46, N-(1-Hydroxy-3,4-dihydro-1H-benzo[c][1,2]oxaborinin-7-yl)-4-methylbenzenesulfonamide], 0.05; to `CC(C)c1ccc(S(=O)(=O)Nc2ccc3c(c2)B(O)OCC3)cc1` [M47, N-(1-Hydroxy-3,4-dihydro-1H-benzo[c][1,2]oxaborinin-7-yl)-4-isopropyl-benzenesulfonamide], 0.04.

The next series has as its system P-gp (human MDR1). The experiment in a line: in vitro. As to conditions: dog, MDCK-MDR1; 3 μM test compound; without GF120918; read-out: MDCK-MCR1 Papp. It is filed as in vitro ADME, canine. As to the method:
as §1, §2, §3
On to `O=C(Nc1ccc2c(c1)B(O)OCC2)c1ccccc1Cl` [M5, 2-Chloro-N-(1-hydroxy-3,4-dihydro-1H-benzo[c][1,2]oxaborinin-7-yl)-benzamide], for which the apparent permeability coefficient (Papp) at 1 h, 3 µM worked out at 70.7 ×10⁻⁶ cm/s.
Take `CCc1ccc(C(=O)Nc2ccc3c(c2)B(O)OCC3)cc1` [M12, 4-Ethyl-N-(1-hydroxy-3,4-dihydro-1H-benzo[c][1,2]oxaborinin-7-yl)-benzamide]: the apparent permeability coefficient (Papp) at 1 h, 3 µM worked out at 80.3 ×10⁻⁶ cm/s.
On the same count and under the same terms, to `O=C(Nc1ccc2c(c1)B(O)OCC2)c1ccc(Cl)cc1Cl` [M27, 2,4-Dichloro-N-(1-hydroxy-3,4-dihydro-1H-benzo[c][1,2]oxaborinin-7-yl)-benzamide] belongs 85.1 ×10⁻⁶ cm/s.
Turning to `O=C(Nc1ccc2c(c1)B(O)OCC2)c1ccc(Cl)cc1F` [M29, 4-Chloro-2-fluoro-N-(1-hydroxy-3,4-dihydro-1H-benzo[c][1,2]oxaborinin-7-yl)-benzamide], the apparent permeability (Papp) at 1 h, 3 µM turned out to be 80.4 ×10⁻⁶ cm/s.
Still for that read-out and setting: to `O=S(=O)(Nc1ccc2c(c1)B(O)OCC2)c1ccc(Cl)cc1` [M43, 4-Chloro-N-(1-hydroxy-3,4-dihydro-1H-benzo[c][1,2]oxaborinin-7-yl)-benzenesulfonamide] belongs 64.9 ×10⁻⁶ cm/s.
On the same count and under the same terms, to `Cc1ccc(S(=O)(=O)Nc2ccc3c(c2)B(O)OCC3)cc1` [M46, N-(1-Hydroxy-3,4-dihydro-1H-benzo[c][1,2]oxaborinin-7-yl)-4-methylbenzenesulfonamide] belongs 77.1 ×10⁻⁶ cm/s; to `CC(C)c1ccc(S(=O)(=O)Nc2ccc3c(c2)B(O)OCC3)cc1` [M47, N-(1-Hydroxy-3,4-dihydro-1H-benzo[c][1,2]oxaborinin-7-yl)-4-isopropyl-benzenesulfonamide], 64.8 ×10⁻⁶ cm/s.

In the next series the test system is LAB 110 Eatro strain of T. b. brucei. Description: Acute Murine Model A [Murine Stage 1 HAT]. The series is classed as in vivo. As to conditions: female Swiss Webster mice, PO 10 mg/kg BID for 4 days, after 10 days. As to the method: Female Swiss Webster mice were inoculated with 250,000 parasites of the LAB 110 Eatro strain of T. b. brucei. 24 hrs post-infection, treatment was initiated by administration of a compound of the invention BID for 4 days with 20 mg/kg/dose (40 mg/kg/day) intraperitoneally (IP) or orally (PO), 5 mg/kg BID or 10 mg/kg BID orally (PO). 3 mice per group were treated with a particular compound of the invention. Mice were checked for parasitemia weekly by microscopic examination of smears prepared from tail vein blood. Animals remaining parasite free for more than 30 days beyond the end of the treatment period were considered cured. Control untreated animals typically succumbed to the infection within 4-5 days following i.p. inoculation with parasites. Mice were monitored for 30 days for survival. Pentamidine at 2 mg/kg IP was used as the positive control. After 10 days, 0% of the untreated mice were parasite free. After 10 days, 67% of mice treated PO with 10 mg/kg BID of N-(1-Hydroxy-3,4-dihydro-1H-benzo[c][1,2]oxaborinin-7-yl)-4-methoxy-benzamide (M19) were parasite free. After 30 days, 100% of mice treated PO with 10 mg/kg BID of 4-fluoro-N-(1-hydroxy-3,4-dihydro-1H-benzo[c][1,2]oxaborinin-7-yl)-2-trifluoromethyl-benzamide (M1) were parasite free.
Regarding `COc1ccc(C(=O)Nc2ccc3c(c2)B(O)OCC3)cc1` [M19, N-(1-Hydroxy-3,4-dihydro-1H-benzo[c][1,2]oxaborinin-7-yl)-4-methoxybenzamide], the “mice parasite free after 10 days” value is reported as 67%.

The same series, now with this note: mice infected with T. b. brucei; 10 mg/kg, BID, orally, 4 days.
Take `O=C(Nc1ccc2c(c1)B(O)OCC2)c1ccccc1Cl` [M5, 2-Chloro-N-(1-hydroxy-3,4-dihydro-1H-benzo[c][1,2]oxaborinin-7-yl)-benzamide]: the “Mean Survival Days” value was determined as 7 days.
Still for that read-out and setting: the same measure for `O=C(Nc1ccc2c(c1)B(O)OCC2)c1ccccc1Br` [M8, 2-Bromo-N-(1-hydroxy-3,4-dihydro-1H-benzo[c][1,2]oxaborinin-7-yl)-benzamide]: 5.6 days; for `CCc1ccc(C(=O)Nc2ccc3c(c2)B(O)OCC3)cc1` [M12, 4-Ethyl-N-(1-hydroxy-3,4-dihydro-1H-benzo[c][1,2]oxaborinin-7-yl)-benzamide]: 8 days.
Still for that read-out and setting: the same measure for `CC(C)(C)c1ccc(C(=O)Nc2ccc3c(c2)B(O)OCC3)cc1` [M14, 4-tert-Butyl-N-(1-hydroxy-3,4-dihydro-1H-benzo[c][1,2]oxaborinin-7-yl)-benzamide]: 3.6 days.
Same read-out and setting: to `O=C(Nc1ccc2c(c1)B(O)OCC2)c1ccccc1C(F)(F)F` [M15, N-(1-Hydroxy-3,4-dihydro-1H-benzo[c][1,2]oxaborinin-7-yl)-2-trifluoromethyl-benzamide] belongs above 30 days.
For `COc1ccc(C(=O)Nc2ccc3c(c2)B(O)OCC3)cc1` [M19, N-(1-Hydroxy-3,4-dihydro-1H-benzo[c][1,2]oxaborinin-7-yl)-4-methoxybenzamide], the “Mean Survival Days” value amounted to 9 days.
Still for that read-out and setting: the same measure for `O=C(Nc1ccc2c(c1)B(O)OCC2)c1ccc(Cl)cc1Cl` [M27, 2,4-Dichloro-N-(1-hydroxy-3,4-dihydro-1H-benzo[c][1,2]oxaborinin-7-yl)-benzamide]: above 30 days; for `O=C(Nc1ccc2c(c1)B(O)OCC2)c1ccc(Cl)cc1F` [M29, 4-Chloro-2-fluoro-N-(1-hydroxy-3,4-dihydro-1H-benzo[c][1,2]oxaborinin-7-yl)-benzamide]: above 30 days; for `COC(=O)c1ccc(C(=O)Nc2ccc3c(c2)B(O)OCC3)cc1` [M40, N-(1-Hydroxy-3,4-dihydro-1H-benzo[c][1,2]oxaborinin-7-yl)-terephthalamic acid methyl ester]: 4 days.
The same measure, in the same setting: to `Cc1ccc(S(=O)(=O)Nc2ccc3c(c2)B(O)OCC3)cc1` [M46, N-(1-Hydroxy-3,4-dihydro-1H-benzo[c][1,2]oxaborinin-7-yl)-4-methylbenzenesulfonamide] belongs 5 days; to `CC(C)c1ccc(S(=O)(=O)Nc2ccc3c(c2)B(O)OCC3)cc1` [M47, N-(1-Hydroxy-3,4-dihydro-1H-benzo[c][1,2]oxaborinin-7-yl)-4-isopropyl-benzenesulfonamide], 9 days; to `CC1(C)COB(O)c2cc(NC(=O)c3ccc(F)cc3C(F)(F)F)ccc21` [M51], 3.6 days.

Another series deals with TREU 667 strain of T. b. brucei. Description: Chronic CNS Model [Murine Stage 2 HAT]. It is filed as in vivo. As to conditions: treated on Day 21 (10 mg/kg), negative control. As to the method:
Mice were infected with 10,000 parasites of the TREU 667 strain of T. b. brucei. Twenty one days post-infection mice were treated with a dose of between 6 and 100 mg/kg of a compound of the invention, either BID or QD for 7 days intraperitoneally (IP) or orally (PO). Positive control mice were treated with Diminazene (10 mg/kg, IP) on Day 4 post-infection. Negative control mice were treated with Diminazene (10 mg/kg, PO) on Day 21. Since Diminazene is not able to penetrate the CNS, mice treated at Day 21 are not able to cure the infection. Starting 1 week after treatment, mice were checked for parasitemia by microscopic examination of smears prepared from tail vein blood. Parasite positive animals were immediately removed from the cages and euthanized. Animals were considered to be cured of a CNS infection if they were aparasitemic for at least 180 days after the end of the treatment period.
In the case of `N=C(N)c1ccc(/N=N/Nc2ccc(C(=N)N)cc2)cc1` [Diminazene, reference compound], the “day by which all animals relapsed to exhibit blood parasitemia” value was at most 56 days.

One may read the Papp as a coefficient for how fast a substance crosses the barrier.
